The text below walks through data of US20200325543A1, “DIAGNOSTIC METHOD” (TOLREMO THERAPEUTICS AG, priority 2017, published 2020).

Counter-ions that a name gives are not always drawn.

This assay deals with SOX2. In words: Screen of a library of FDA-approved drugs for SOX2 antibody staining in A375 cells treated with PLX4720 and AZD6244. The note with it: for cor. loess / raw / norm: A375 cells, 5 uM test drug with 1 uM PLX4720 and 0.5 uM AZD6244, 24 h; for cor. loess: normalized and geometry-corrected (loess) signal; for raw: raw signal (ratio of FL2 SOX2 antibody and FL3 nuclear staining), screen run in duplicate; for norm: signal after plate normalization; for z: Z-test against negative controls (DMSO), single dose 5 uM.

Turning to `O=c1[nH]c(=O)n([C@H]2C[C@H](O)[C@@H](CO)O2)cc1I` [IDOXURIDINE], the cor. loess came out at 0.715, the raw came to 0.9726, the norm stood at 0.7167 and the z is reported as 6.136.

As for `COc1cc([C@@H]2c3cc4c(cc3[C@@H](O[C@@H]3O[C@@H]5CO[C@@H](c6cccs6)O[C@H]5[C@H](O)[C@H]3O)[C@H]3COC(=O)[C@H]23)OCO4)cc(OC)c1O` [TENIPOSIDE], the cor. loess is reported as 0.6446, the raw was 0.9667, the norm is recorded as 0.8759 and the z was found to be 8.769.

`COc1ccc(/C=C\c2cc(OC)c(OC)c(OC)c2)cc1OP(=O)([O-])[O-].[Na+].[Na+]` [Fosbretabulin (Combretastatin A4 Phosphate (CA4P)) Disodium]: the cor. loess is on record as 0.3981, the raw is listed as 0.9814, the norm came to 0.3844 and the z is reported as 4.256.

As to `CC(=O)OCC(=O)[C@@]1(O)CC[C@H]2[C@@H]3CCC4=CC(=O)CC[C@]4(C)[C@@]3(F)[C@@H](O)C[C@@]21C` [FLUDROCORTISONE ACETATE], the cor. loess worked out at 0.4578, the raw is recorded as 0.977, the norm is recorded as 0.5063 and the z turned out to be 3.773.

As to `Cc1cc(C(C)(C)CC(C)(C)C)ccc1OCCOCC[N+](C)(C)Cc1ccccc1.[Cl-]` [METHYLBENZETHONIUM CHLORIDE], the cor. loess is 0.2976, the raw amounted to 0.9826, the norm amounted to 0.3484 and the z is 4.049.

For the compound `CO[C@H]1C[C@@H]2CC[C@@H](C)[C@@](O)(O2)C(=O)C(=O)N2CCCC[C@H]2C(=O)O[C@H]([C@H](C)C[C@@H]2CC[C@@H](O)[C@H](OC)C2)CC(=O)[C@H](C)/C=C(\C)[C@@H](O)[C@@H](OC)C(=O)[C@H](C)C[C@H](C)/C=C/C=C/C=C/1C` [SIROLIMUS], the cor. loess is 0.3171, the raw is given as 0.9808, the norm is recorded as 0.4075 and the z is 4.314.

With `CCC(=O)O[C@]1(C(=O)SCF)[C@H](C)C[C@H]2[C@@H]3C[C@H](F)C4=CC(=O)C=C[C@]4(C)[C@@]3(F)[C@@H](O)C[C@@]21C` [FLUTICASONE PROPIONATE], the cor. loess worked out at 0.6875, the raw stood at 0.9704, the norm was 0.713 and the z is 4.067.

In the case of `O=C(Nc1ccc([N+](=O)[O-])cc1Cl)c1cc(Cl)ccc1O` [NICLOSAMIDE], the cor. loess is reported as 0.7224, the raw turned out to be 0.97, the norm is 0.7648 and the z is on record as 9.828.

In the case of `C[C@H]1C[C@@H]2[C@H]([C@@H](O)C[C@@]3(C)[C@H]2CC[C@]3(O)C(=O)COC(=O)CCC(=O)O)[C@@]2(C)C=CC(=O)C=C12` [METHYLPREDNISOLONE SODIUM SUCCINATE], the cor. loess is on record as 0.4008, the raw was 0.9806, the norm turned out to be 0.4166 and the z was determined as 5.452.

With `CCCCCCCCCCCCCCCC[N+](C)(C)C.[Br-]` [CETRIMONIUM BROMIDE], the cor. loess was determined as 5.014, the raw was determined as 0.8841, the norm came out at 4.765 and the z was determined as 19.51.

`CC(=O)OCC(=O)[C@@]1(O)[C@H](C)C[C@H]2[C@@H]3CCC4=CC(=O)C=C[C@]4(C)[C@@]3(F)[C@@H](O)C[C@@]21C` [DEXAMETHASONE ACETATE]: the cor. loess is 0.4615, the raw is reported as 0.9769, the norm was determined as 0.5088 and the z is recorded as 3.803.

Take `COC(=O)Nc1nc2ccc(C(=O)c3cccs3)cc2[nH]1` [NOCODAZOLE]: the cor. loess is 0.5311, the raw is on record as 0.9766, the norm worked out at 0.5009 and the z is on record as 3.142.

For `Cc1cn(-c2cc(NC(=O)c3ccc(C)c(Nc4nccc(-c5cnccn5)n4)c3)cc(C(F)(F)F)c2)cn1` [Radotinib], the cor. loess is given as 0.7186, the raw was 0.9713, the norm was 0.7194 and the z came out at 7.683.

For `Nc1ccc2cc3ccc(N)cc3nc2c1` [PROFLAVINE HEMISULFATE], the cor. loess was 0.3381, the raw was 0.9828, the norm is 0.2862 and the z is listed as 3.749.

For the compound `CCNC1(C(N)=O)CCN(c2ncnc3c2nc(-c2ccccc2Cl)n3-c2ccc(Cl)cc2)CC1` [Otenabant (CP-945598) HCl], the cor. loess was 1.069, the raw was found to be 0.9665, the norm was 0.8357 and the z is listed as 4.116.

For `COc1ccc2cc1Oc1ccc(cc1)C[C@H]1c3cc(c(OC)cc3CCN1C)Oc1c(OC)c(OC)cc3c1[C@H](C2)N(C)CC3` [Tetrandrine], the cor. loess came to 1.018, the raw was 0.9619, the norm was found to be 1.018 and the z was found to be 7.2.

On to `COc1cc2c(c(OC)c1OC)-c1ccc(OC)c(=O)cc1[C@@H](NC(C)=O)CC2` [COLCHICINE], for which the cor. loess was 0.7111, the raw came to 0.9693, the norm was found to be 0.7731 and the z turned out to be 5.86.

Regarding `C[C@H]1[C@@H](O)O[C@@H]2O[C@@]3(C)CC[C@H]4[C@H](C)CC[C@@H]1[C@@]24OO3` [ARTENIMOL], the cor. loess is 0.4829, the raw was found to be 0.978, the norm came to 0.4488 and the z amounted to 5.354.

For `OC1(c2ccc(Cl)c(C(F)(F)F)c2)CCN(CCCC(c2ccc(F)cc2)c2ccc(F)cc2)CC1` [PENFLURIDOL], the cor. loess was 2.248, the raw came to 0.9179, the norm was 2.491 and the z worked out at 30.59.

Consider `Cc1cc(Nc2ncc(Cl)c(Nc3ccccc3S(=O)(=O)C(C)C)n2)c(OC(C)C)cc1C1CCNCC1` [LDK378], for which the cor. loess turned out to be 3.065, the raw was determined as 0.8857, the norm worked out at 3.411 and the z came to 23.92.

For `CCOc1cc2ncc(C#N)c(Nc3ccc(F)c(Cl)c3)c2cc1NC(=O)/C=C/CN(C)C` [Pelitinib (EKB-569), Pelitinib], the cor. loess was determined as 0.7376, the raw was 0.9677, the norm is reported as 0.828 and the z was determined as 5.755.

For the compound `CC1(C)O[C@@H]2C[C@H]3[C@@H]4C[C@H](F)C5=CC(=O)C=C[C@]5(C)[C@H]4[C@@H](O)C[C@]3(C)[C@]2(C(=O)CO)O1` [FLUNISOLIDE], the cor. loess is given as 0.6279, the raw stood at 0.9737, the norm was determined as 0.6807 and the z came to 5.388.

On to `C[C@H]1O[C@@H](O[C@H]2[C@@H](O)C[C@H](O[C@H]3[C@@H](O)C[C@H](O[C@H]4CC[C@@]5(C)[C@H](CC[C@@H]6[C@@H]5CC[C@]5(C)[C@@H](C7=CC(=O)OC7)CC[C@]65O)C4)O[C@@H]3C)O[C@@H]2C)C[C@H](O)[C@@H]1O` [DIGITOXIN], for which the cor. loess is 1.488, the raw is on record as 0.9468, the norm came to 1.549 and the z worked out at 12.26.

For `O=C1c2ccccc2C(=O)C1c1ccc(Cl)cc1` [CHLORINDIONE], the cor. loess worked out at 0.3463, the raw is listed as 0.9825, the norm is given as 0.2966 and the z is listed as 3.839.

As to `S=C(NCc1ccc2c(c1)OCO2)N1CCN(c2ncnc3c2oc2ccccc23)CC1` [Amuvatinib (MP-470), Amuvatinib], the cor. loess worked out at 0.5191, the raw is recorded as 0.9748, the norm worked out at 0.6031 and the z is listed as 4.05.

As to `O=[N+]([O-])C(Br)(CO)CO` [BRONOPOL], the cor. loess worked out at 0.4507, the raw was found to be 0.9779, the norm came out at 0.4505 and the z is recorded as 4.996.

With `CC(=O)O[C@H]1C(=O)[C@@]2(C)[C@H]([C@H](OC(=O)c3ccccc3)[C@]3(O)C[C@H](OC(=O)[C@H](O)[C@@H](NC(=O)c4ccccc4)c4ccccc4)C(C)=C1C3(C)C)[C@]1(OC(C)=O)CO[C@@H]1C[C@@H]2O` [PACLITAXEL], the cor. loess was determined as 0.341, the raw turned out to be 0.9826, the norm stood at 0.3501 and the z is listed as 4.64.

Consider `CCC(=O)OCC(=O)[C@@]1(OC(=O)CC)[C@@H](C)C[C@H]2[C@@H]3CCC4=CC(=O)C=C[C@]4(C)[C@@]3(F)[C@@H](O)C[C@@]21C` [BETAMETHASONE 17,21-DIPROPIONATE], for which the cor. loess stood at 0.4356, the raw is 0.9801, the norm is on record as 0.4336 and the z turned out to be 5.927.

`C[C@@H]1C[C@H]2[C@@H]3CCC4=CC(=O)C=C[C@]4(C)[C@@]3(F)[C@@H](O)C[C@]2(C)[C@@]1(O)C(=O)COP(=O)(O)O` [DEXAMETHASONE SODIUM PHOSPHATE]: the cor. loess is reported as 0.5299, the raw is given as 0.9748, the norm is reported as 0.5817 and the z is listed as 4.367.

Regarding `CC(C)(C)c1ccc(C(O)CCCN2CCC(C(O)(c3ccccc3)c3ccccc3)CC2)cc1` (stereo not drawn) [TERFENADINE], the cor. loess was determined as 0.2601, the norm is 0.5459 and the z is given as 3.539.

Turning to IVERMECTIN, the cor. loess is recorded as 0.6358, the raw is 0.9726, the norm is listed as 0.6393 and the z was 3.761.
